Here are results for five molecules from PMC7948422, “Repurposing p97 inhibitors for chemical modulation of the bacterial ClpB–DnaK bichaperone system” (The Journal of Biological Chemistry, 2020).

In assay [1] the target is monomeric ClpB. Also on record: method as in PMID 10982797. The note with it: read-out: Kd of monomeric ClpB toward ATP; cited from earlier work.
Assay [2] deals with T1, wt ClpB (Escherichia coli, UniProt P63284).
T1 construct: made in house
Nature of the assay: Surface plasmon resonance, immobilized wt ClpB. The class given is binding. The note with it: SPR, preliminary; read-out: dissociation constant, control titration of immobilized ClpB. The protocol:
ClpB, DnaK, and the NBD of DnaK were extensively dialyzed against the SPR buffer (20-mM Hepes, pH 7.4, 150-mM NaCl, 20-mM MgCl2, 1-mM EDTA, 1-mM DTT). After dialysis, the protein concentration was determined by the Bradford method. The DBeQ–protein interactions were studied using a Biacore T200 instrument (GE Healthcare) at 25 °C. The proteins were diluted to 300 μg/ml in 10-mM sodium acetate buffer (pH 5 for ClpB DnaK or pH 4 for NBD) and immobilized on HC1500M sensor chips (Xantec) by standard amine coupling chemistry as described previously ([70]). A reference flow cell was created by ethyl(dimethylaminopropyl) carbodiimide/N-hydroxysuccinimide activation followed by quenching with 1 M ethanolamine (pH 9.0). Solvent correction curves were obtained at the beginning and end and after every 50 injection cycles by injecting varying DMSO concentrations (4.0, 4.4, 4.6, 4.8, 5.0, 5.2, 5.4, and 5.9% [v/v]). All experiments were performed using a flow rate of 30 μl/min.
Binding isotherms were obtained with the ligand diluted to different concentrations in the SPR running buffer HBSMTD (20-mM Hepes, pH 7.4, 140-mM NaCl, 20-mM MgCl2, 5% (v/v) DMSO, 0.005% (v/v) Tween-20). Replicate injections were performed for all samples, and a buffer-only injection was performed for every 12 injection cycles. To test the structural integrity of ClpB after immobilization on the sensor chips, we performed control titrations with ATPγS and adenosine. The dissociation constants determined from those experiments were ∼20 μM for ATPγS and ∼2 mM for adenosine. […] Moreover, the immobilized ClpB discriminated between a nucleotide analog and a nucleoside, which indicated an adequate structural integrity of ClpB on the sensor chips.
The resulting sensorgrams were analyzed using Biacore T200 Evaluation Software v3.0 according to the following procedure. Solvent correction curves were generated and applied to all data sets, and all sensorgrams were double-referenced by subtracting the most recent buffer blank injection. The signal immediately before injection stop of these corrected sensorgrams was treated as the binding response. GraphPad Prism was used for nonlinear least-squares fitting of the model assuming either noncooperative or cooperative binding of DBeQ to DnaK and ClpB, respectively.
A general note: In SPR one partner is held on a chip, and binding of the other changes the refractive index at the surface.

The test system of assay [3] is p97. Also on record: method as in PMID 25685910. The note with it: cited from earlier work.
Assay [4] concerns the target T2, E. coli ClpB (Escherichia coli, UniProt P63284).
T2 construct: made in house
The class given is biochemical. The conditions noted are these: 100 μM compound, 37 °C; for inhibition of the basal ClpB ATPase: no casein; for inhibition of the ClpB ATPase in the presence of casein: with κ-casein. The procedure: To determine the ATPase activity, ClpB was diluted to 28 μg/ml (49-nM hexamer) in buffer C (50-mM Tris-HCl, pH 7.4, 20-mM MgCl2, 1-mM EDTA, 0.5-mM tris(2-carboxyethyl)phosphine [TCEP]). In some experiments, the ClpB solution was supplemented with 17.4 μg/ml (10 μM) κ-casein. The ClpB aliquots (18 μl) were mixed with 1 μl of the investigated compounds at different concentrations in 100% DMSO or with DMSO as a control. A sample without ClpB was used as a baseline control. After a 10-min preincubation at 37 or 45 °C, the ATP hydrolysis reaction was initiated by adding 1 μl of 100-mM ATP. The samples were incubated for 60 min (basal ClpB activity in the absence of κ-casein) or 15 min (in the presence of κ-casein) at 37 °C or 30 min at 45 °C in the absence of casein. For the E678Q ClpB variant, the incubation time in the presence of κ-casein was 60 min. After incubation, 15 μl of each sample was mixed with 200 μl of the ammonium molybdate/malachite green reagent ([67]) dispensed into a 96-well plate, followed by an addition of 30 μl of 34% sodium citrate ([68]). The plate was agitated inside a Synergy H1 reader (BioTek, Winooski, VT) for 15 min at room temperature, and the samples’ absorbance was measured at 630 nm. The readouts for ClpB-containing samples were corrected for absorbance of samples without ClpB, to account for nonenzymatic production of inorganic phosphate. A standard curve obtained with different inorganic phosphate concentrations was used to determine the amount of phosphate produced from ATP in the presence of ClpB.

Entries after “also recorded” stand apart in the source; their conditions may differ. Bounds are passed on as bounds.

T2 sequence (P63284 whole entry): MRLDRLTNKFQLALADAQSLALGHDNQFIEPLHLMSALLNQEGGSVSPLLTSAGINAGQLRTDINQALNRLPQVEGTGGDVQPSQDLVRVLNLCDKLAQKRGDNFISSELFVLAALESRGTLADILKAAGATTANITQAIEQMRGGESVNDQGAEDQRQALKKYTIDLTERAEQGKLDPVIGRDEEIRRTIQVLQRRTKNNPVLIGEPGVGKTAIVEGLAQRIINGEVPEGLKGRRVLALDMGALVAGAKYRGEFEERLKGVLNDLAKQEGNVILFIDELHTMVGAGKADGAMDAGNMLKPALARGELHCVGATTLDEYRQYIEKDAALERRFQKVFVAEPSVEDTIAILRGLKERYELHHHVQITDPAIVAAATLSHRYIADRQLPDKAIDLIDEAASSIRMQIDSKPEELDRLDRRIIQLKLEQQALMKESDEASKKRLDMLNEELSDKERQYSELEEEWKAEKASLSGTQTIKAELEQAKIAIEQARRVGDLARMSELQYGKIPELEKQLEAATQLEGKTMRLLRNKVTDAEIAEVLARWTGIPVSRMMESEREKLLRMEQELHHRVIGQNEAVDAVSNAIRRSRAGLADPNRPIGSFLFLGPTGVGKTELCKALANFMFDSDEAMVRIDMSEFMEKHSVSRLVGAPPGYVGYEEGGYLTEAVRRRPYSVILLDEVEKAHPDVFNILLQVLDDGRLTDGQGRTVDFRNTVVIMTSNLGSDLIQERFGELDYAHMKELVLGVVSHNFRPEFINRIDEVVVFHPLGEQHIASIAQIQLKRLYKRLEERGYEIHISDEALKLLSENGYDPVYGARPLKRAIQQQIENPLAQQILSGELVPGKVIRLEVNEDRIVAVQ
T1 sequence (P63284 whole entry): as above

With `Nc1ncnc2c1ncn2[C@@H]1O[C@H](COP(=O)(O)OP(=O)(O)OP(=O)(O)O)[C@@H](O)[C@H]1O` [ATP], in assay [1], the Kd was greater than 1000 µM.
Turning to `Nc1ncnc2c1ncn2[C@@H]1O[C@H](CO[P@](=O)(O)O[P@](=O)(O)O[P@@](=O)(O)S)[C@@H](O)[C@H]1O` [ATPγS], the Kd in assay [2] was roughly 20 µM.
`COc1cccc2c(NCc3ccccc3)nc(-n3c(N)nc4ccccc43)nc12` [ML240]: the IC50 (usually the midpoint of a concentration-inhibition curve) in assay [3] was roughly 0.1 µM. Moreover, in assay [4], the “inhibition of the basal ClpB ATPase” value is listed as “None of the above compounds, except C3, showed a significant inhibition”; the “inhibition of the ClpB ATPase in the presence of casein” value was “loss of potency toward ClpB; also recorded: only C3 and DBeQ strongly inhibited”.
With `Cc1cc(OCc2nnc(SC3CCCC3)n2-c2cccnc2)ccc1-c1ccc(S(C)(=O)=O)cc1` [NMS-873], the IC50 in assay [3] was roughly 0.02 µM. In assay [4], the “inhibition of the basal ClpB ATPase” value is on record as “None of the above compounds, except C3, showed a significant inhibition”; the “inhibition of the ClpB ATPase in the presence of casein” value was “only C3 and DBeQ strongly inhibited”.
`Nc1ncnc2c1ncn2[C@@H]1O[C@H](CO)[C@@H](O)[C@H]1O` [adenosine]: the Kd in assay [2] was roughly 2000 µM.
